Measurements taken from patent publication US7557116B2, “Substance which exhibits antiviral and antibacterial activity and is based on derivatives of 2,8-dithioxo-1H-pyrano[2,3d 6,5-d′]dipyrimidyne and 10-aza-analogue thereof” (priority 2003, dated 2009).
Where two headings read alike, the source gives them in different places. Marks after values point to notes of the source that are not given here.

Legend:
Assay type in all cases: cell-based
Herpes virus of type I = test: Protection of Vero cells from Herpes virus of type I; conditions: for Number of cells: number of cells in 100 fields
[1] = test system: Chlamydia trachomatis D323; test: Protection of cell culture from Chlamydia trachomatis (immunofluorescence, cytoplasmatic inclusions)
Text: The antiviral activity of the claimed compounds were also all tested against the Chlemydia trachomatis. The effects of the claimed compounds on the Chlamydia trachomatis are charted in TABLE 4. A relative strain of Chlamydia trachomatis D323 was used to test the claimed compounds. The strain, derived from a patient with Chlamydia urethritis, comprised a morphology and a physiological activity characteristic of and representative of that type. An infection dose of Chlamydia having a concentration of 1/10^6 cells/ml was introduced into a cell culture. Immunofluorescence (MicroTrack Chlamydia trachomatis Direct Specimen Test) was conducted to determine the significance of the chlamydial cytoplasmatic inclusions (CPI). A CylaMonoScreen was conducted to obtain the chlamydia antigens. The monolayer state and the number of cells with CPI were compared to the control to determine the effects the claimed compounds have on the chlamydia. The number of unchanged cells in 100 visual fields were counted utilizing a special net on a microscopic eyepiece.

Influenza virus A = test system: Influenza virus A
Influenza virus B = test system: Influenza virus B
[2] = test system: Human Immunodeficiency Virus Type 1; test: Anti-HIV activity: protection of MT4 T-lymphoblastoid cells (IFA)
Method: Activity against the Human immunodeficiency Virus (HIV) was also determined and, more specifically, the compounds antiviral effectiveness in protecting the T-lymphoblastoid cells MT4 from being infected by the virus-containing liquid of HTHIV27 cultures. The cells infected by the virus were analyzed according to the following methods: (1) An indirect immunofluorescence (IFA) with a polyclonal anti-serum was received from an HIV Infected human (the antibody titer in the IFA was 1:1000000) and, (2) A competitive IFA was utilized with monoclonal antibodies (MonAb) to p24 HIV and a polyclonal substrate. A solution of 1:540 was used in the tests. Azidothymidin (AZT) was used as the control.
The results documented in the table shown in TABLE 6 evidence that the compounds tested inhibit the reproduction of the Human Immunodeficiency Virus Type 1.

[3] = Influenza virus A, 48 hours at 33-34 C, ineffective when IN less than 1.0
[4] = Influenza virus B, 72 hours at 33-34 C, ineffective when IN less than 1.0

Compound | percentage of protection of cells from virus (Herpes virus of type I; compound 10 mg/l) | percentage of protection of cells from virus (Herpes virus of type I; compound 50 mg/l) | percentage of protection of cells from virus (Herpes virus of type I; compound 100 mg/l) | Number of cells (Herpes virus of type I; compound 10 mg/l) | Number of cells (Herpes virus of type I; compound 50 mg/l) | Number of cells (Herpes virus of type I; compound 100 mg/l) | Percentage of cells' defense from C. trachomatis ([1]; compound 30 mg/l) | Percentage of cells' defense from C. trachomatis ([1]; compound 100 mg/l) | Index of neutralization (Influenza virus A; [3]) | Index of neutralization (Influenza virus B; [4]) | Level of inhibition of virus reproduction ([2]; 5 mg/l) | Level of inhibition of virus reproduction ([2]; 50 mg/l) | Level of inhibition of virus reproduction ([2]; 100 mg/l) | Index of neutralization (Influenza virus A) | Index of neutralization (Influenza virus B)
Nc1nc(=S)[nH]c2c1C(c1ccc([N+](=O)[O-])cc1)c1c(Cl)nc(=S)[nH]c1O2 (stereo not shown) [IV, 4-chlorine-6-amino-5-(4-dinytrophenyl)-5,9-dihydro-1H-pyrano[2,3-d: 6,5-d′]dipyrimidine-2,8-dition] | 50% | 70% | 80% | 6000 | 8400 | 9600 | 50% | 80% | 2.0 | 1.5 |  |  |  |  | 
Nc1nc(=S)[nH]c2c1C(c1ccc([N+](=O)[O-])cc1)c1c(N)nc(=S)[nH]c1N2 [VI, 4,5-diamino-10-(4-nytrophenyl)-9,10-dihydro-1H,8H-1,3,6,8,9-pentaazaantrecen-2,7dition] | 70% | 90% | 100% | 8400 | 10800 | 12000 | 50% | 80% | 20 | 1.5 |  |  |  |  | 
Oc1nc(=S)[nH]c2c1C(c1ccccc1)c1c(Cl)nc(=S)[nH]c1O2 (stereo not shown) [Ia, 4-chlorine-6-hydroxi-5-aryl-5,9-dihydro-1H-pyrano[2,3d: 6,5-d′]dipyrimidine-2,8-dition] | 60% | 80% | 90% | 7200 | 9600 | 10800 |  |  |  |  |  |  |  |  | 
O=[N+]([O-])c1ccc(C2c3c(Cl)nc(=S)[nH]c3Oc3[nH]c(=S)nc(Cl)c32)cc1 [Iia, 4,6-dichlorine-5-(4-nitrophenyl)-5,9-dihydro-1H-pyrano[2,3-d: 6,5-d′]dipyrimidine-2,8-dition] |  |  |  |  |  |  | 70% | 90% | 1.5 | 1.5 |  |  |  |  | 
CNc1nc(=S)[nH]c2c1C(c1ccc([N+](=O)[O-])cc1)c1c(O)nc(=S)[nH]c1O2 (stereo not shown) [VIII, 4-methylamino-6-hydroxi-5-(4-nitrophenyl)-5,9-dihydro-1H-pyrano[2,3d: 6,5-d′]dipyrimidine-2,8-dition] |  |  |  |  |  |  | 70% | 90% | 2.0 | 1.5 |  |  |  |  | 
4-chlorine-6-hydroxi-5-aryl-5,9-dihydro-1H-pyrano[2,3d: 6,5-d′]dipyrimidine-2-8-dition [Iib] | 70% | 90% | 100% | 8400 | 10800 | 12000 |  |  |  |  |  |  |  |  | 
O=[N+]([O-])c1ccc(C2c3cnc(=S)[nH]c3Oc3[nH]c(=S)nc(O)c32)cc1 (stereo not shown) [XI, 6-hydroxi-5-4-(4-nitrophenyl)-5,9-dihydro-1H-pyrano[2,3-d: 6,5-d′]dipyrimidine-2,8-dition] | 50% | 70% | 80% | 6000 | 8400 | 9600 | 50% | 90% | 1.5 | 1.5 |  |  |  |  | 
Nc1nc2c(ncn2COCCO)c(=O)[nH]1 [Acyclovir, reference compound] | (80%)**** |  |  | 9600*** |  |  |  |  |  |  |  |  |  |  | 
Nc1nc(=S)[nH]c2c1C(c1ccc([N+](=O)[O-])cc1)c1c(N)nc(=S)[nH]c1O2 [V, 4,6-diamino-5-(4-nytrophenyl)-5,9-dihydro-1H-pyrano[2,3-d: 6,5-d′]dipyrimidine-2,8-dition] | 60% | 80% | 90% | 7200 | 9600 | 10800 | 50% | 80% | 1.0 | 1.5 | 90% | 100% | 100% |  | 
O=[N+]([O-])c1ccc(C2c3c(O)nc(=S)[nH]c3Oc3[nH]c(=S)nc(O)c32)cc1 [XII] | 10% | 30% | 50% | 1200 | 3600 | 6000 | 40% | 60% |  |  |  |  |  |  | 
Nc1nc(=S)[nH]c2c1C(c1ccc([N+](=O)[O-])cc1)c1c(O)nc(=S)[nH]c1O2 (stereo not shown) [III, 4-amino-6-hydroxi-5-(4-nitrophenyl)-5,9-dihydro-1H-pyrano[2,3-d: 6,5-d′]dipyrimidine-2,8-dition] | 70% | 80% | 100% | 8400 | 9600 | 12000 | 70% | 100% | 0.5 | 1.0 | 70% | 90% | 100% |  | 
CN(C)c1nc(=S)[nH]c2c1C(c1ccc([N+](=O)[O-])cc1)c1c(O)nc(=S)[nH]c1O2 (stereo not shown) [IX, 4-dimethylamine-6-hydroxi-5-(4-nitrophenyl)-5,9-dihydro-1H-pyrano[2,3-d: 6,5-d′]dipyrimidine-2,8-dition] | 50% | 70% | 80% | 6000 | 8400 | 9600 | 50% | 80% |  |  |  |  |  | 2.0 | 1.5
O=[N+]([O-])c1ccc(C2c3c(O)nc(=S)[nH]c3Oc3[nH]c(=S)nc(Sc4nc(O)cc(O)n4)c32)cc1 (stereo not shown) [X, 4-(4,6-dihydroxipirimidine-2sulfanil)-6-hydroxi-5-(4-nytrophenyl)-5,9-dihydro-1H-pyrano [2,3-d: 6,5-d′]dipyrimidine-2,8-dition] | 60% | 80% | 90% | 7200 | 9600 | 10800 | 60% | 100% | 1.5 | 1.0 |  |  |  |  | 
